{"source": "patent US20110077294A1", "about": "“R-(-) / S-(+)-7-[3-N SUBSTITUTED AMINO-2 HYDROXYPROPOXY] FLAVONES” (priority 2006, published 2011)", "key": {"[1]": {"test_system": "C57BL/KsBom-db/db mice", "test": "Oral glucose tolerance test (OGTT) on day 10 in db/db mice", "assay_type": "in vivo", "conditions": "for Comparative antihyperglycemic activity: Day 10 (OGTT): in % (unit assumed)", "experimental": "(§1) C57BL/KsBom-db/db mice (12-18 weeks old), weighing around 35+g bred in the animal house of CDRI, Lucknow, were used in the present experiments. The mice were housed in groups of 3 to 5 (same sex) in a room controlled for temperature (23±2.0 ° C.) and 12/12 hours light/dark cycle (lights on at 6.00 am). Body weight of each animal was measured daily from day 1 to day 10 of the experiment. All animals had free access to fresh water and normal pellet diet except on the day of the postprandial protocol (day 6) and during the overnight fast before the OGTT on day 10. The animals always had access to water during experimental periods. Blood glucose was checked every morning up till day 10. On day 10 an oral glucose tolerance test (OGTT) was performed after an overnight fasting. Blood glucose was measured at −30.0 min and test compounds were administered. The blood glucose was again measured at 0 min just post treatment and at this juncture glucose solution was given at a dose of 3 gm/kg to all the groups including the vehicle treated group. The blood glucose levels were checked at 30 min, 60 min, 90 min and 120 min post glucose administration. The data was analyzed for its significance on Prism software."}, "[2]": {"test_system": "C57BL/KsBom-db/db mice", "test": "Blood glucose profile of db/db mice during daily treatment (antihyperglycemic activity)", "assay_type": "in vivo", "conditions": "for Blood glucose % change compared to control, day 1: day 1, vs sham; for Blood glucose % change compared to control, day 2: day 2, vs sham; for Blood glucose % change compared to control, day 3: day 3, vs sham; for Blood glucose % change compared to control, day 4: day 4, vs sham; for Blood glucose % change compared to control, day 5: day 5, vs sham; for Blood glucose % change compared to control, day 6: day 6, vs sham; for Blood glucose % change compared to control, day 7: day 7, vs sham; for Blood glucose % change compared to control, day 8: day 8, vs sham; for Blood glucose % change compared to control, day 9: day 9, vs sham; for Comparative antihyperglycemic activity: Average Fall: day given in brackets, in %", "experimental": "as §1"}}, "note": "Marks after values point to notes of the source that are not given here.", "data": [{"smiles": "CC(C)(C)NC[C@H](O)COc1ccc2c(=O)cc(-c3cc(OCc4ccccc4)cc(OCc4ccccc4)c3)oc2c1", "note": "[S-002-853 (S), (S)-(+)-7-(3-tert-Butylamino-2-hydroxypropoxy)-3′,5′-dibenzyloxyflavone]", "values": [{"measurement": "Blood glucose % change compared to control, 120 min post glucose load", "setting": "[1]; 25 mg/kg, OGTT day 10, 120 min, vs sham", "result": "−58.2", "unit": "%"}, {"measurement": "Blood glucose profile, −30 min post glucose load", "setting": "[1]; 25 mg/kg, OGTT day 10, −30 min", "result": "4.57 ± 0.30", "unit": "mM"}, {"measurement": "Blood glucose % change compared to control, −30 min post glucose load", "setting": "[1]; 25 mg/kg, OGTT day 10, −30 min, vs sham", "result": "−43.5", "unit": "%"}, {"measurement": "effect of 10 days treatment on glucose tolerance (overall improvement in OGTT)", "setting": "[1]; 25 mg/kg, vs sham", "result": "around 45.3%"}, {"measurement": "Comparative antihyperglycemic activity: Day 10 (OGTT)", "setting": "[1]; test dose 10 mg/kg", "result": "27.6*"}, {"measurement": "Comparative antihyperglycemic activity: Day 10 (OGTT)", "setting": "[1]; test dose 25 mg/kg", "result": "45.3**"}, {"measurement": "fall in blood glucose profile (in words)", "setting": "[2]; 10 mg/kg", "result": "not statistically significant on any day post treatment"}, {"measurement": "Blood glucose, day 1 post treatment", "setting": "[2]; 10 mg/kg", "result": "19.8 ± 2.47", "unit": "mM"}, {"measurement": "Blood glucose % change compared to control, day 1", "setting": "[2]; 10 mg/kg", "result": "−0.9", "unit": "%"}, {"measurement": "Blood glucose, day 2 post treatment", "setting": "[2]; 10 mg/kg", "result": "18.5 ± 2.34", "unit": "mM"}, {"measurement": "Blood glucose % change compared to control, day 2", "setting": "[2]; 10 mg/kg", "result": "−9.60", "unit": "%"}, {"measurement": "Blood glucose, day 3 post treatment", "setting": "[2]; 10 mg/kg", "result": "17.9 ± 2.14", "unit": "mM"}, {"measurement": "Blood glucose % change compared to control, day 3", "setting": "[2]; 10 mg/kg", "result": "−18.6", "unit": "%"}, {"measurement": "Blood glucose, day 4 post treatment", "setting": "[2]; 10 mg/kg", "result": "15.3 ± 2.96", "unit": "mM"}, {"measurement": "Blood glucose % change compared to control, day 4", "setting": "[2]; 10 mg/kg", "result": "−26.8", "unit": "%"}, {"measurement": "Blood glucose, day 5 post treatment", "setting": "[2]; 10 mg/kg", "result": "13.8 ± 2.98", "unit": "mM"}, {"measurement": "Blood glucose % change compared to control, day 5", "setting": "[2]; 10 mg/kg", "result": "−35.0", "unit": "%"}, {"measurement": "Blood glucose, day 6 post treatment", "setting": "[2]; 10 mg/kg", "result": "13.1 ± 3.41", "unit": "mM"}, {"measurement": "Blood glucose % change compared to control, day 6", "setting": "[2]; 10 mg/kg", "result": "−40.7", "unit": "%"}, {"measurement": "Blood glucose, day 7 post treatment", "setting": "[2]; 10 mg/kg", "result": "11.8 ± 3.55", "unit": "mM"}, {"measurement": "Blood glucose % change compared to control, day 7", "setting": "[2]; 10 mg/kg", "result": "−42.0", "unit": "%"}, {"measurement": "Blood glucose, day 8 post treatment", "setting": "[2]; 10 mg/kg", "result": "12.1 ± 3.39", "unit": "mM"}, {"measurement": "Blood glucose % change compared to control, day 8", "setting": "[2]; 10 mg/kg", "result": "−42.2", "unit": "%"}, {"measurement": "Blood glucose, day 9 post treatment", "setting": "[2]; 10 mg/kg", "result": "14.2 ± 2.98", "unit": "mM"}, {"measurement": "Blood glucose % change compared to control, day 9", "setting": "[2]; 10 mg/kg", "result": "−39.4", "unit": "%"}, {"measurement": "antihyperglycemic and antidyslipidemic/antihyperlipidemic activity (in words)", "setting": "[2]; 25 mg/kg", "result": "significant antihyperglycemic and antidyslipidemic activity"}, {"measurement": "Blood glucose, day 1 post treatment", "setting": "[2]; 25 mg/kg", "result": "22.4 ± 1.24", "unit": "mM"}, {"measurement": "Blood glucose % change compared to control, day 1", "setting": "[2]; 25 mg/kg", "result": "+0.20%"}, {"measurement": "Blood glucose, day 2 post treatment", "setting": "[2]; 25 mg/kg", "result": "16.6 ± 3.85", "unit": "mM"}, {"measurement": "Blood glucose % change compared to control, day 2", "setting": "[2]; 25 mg/kg", "result": "−33.6", "unit": "%"}, {"measurement": "Blood glucose, day 3 post treatment", "setting": "[2]; 25 mg/kg", "result": "12.9 ± 3.00", "unit": "mM"}, {"measurement": "Blood glucose % change compared to control, day 3", "setting": "[2]; 25 mg/kg", "result": "−39.5", "unit": "%"}, {"measurement": "Blood glucose, day 4 post treatment", "setting": "[2]; 25 mg/kg", "result": "10.6 ± 2.89", "unit": "mM"}, {"measurement": "Blood glucose % change compared to control, day 4", "setting": "[2]; 25 mg/kg", "result": "−54.9", "unit": "%"}, {"measurement": "Blood glucose, day 5 post treatment", "setting": "[2]; 25 mg/kg", "result": "8.80 ± 3.84", "unit": "mM"}, {"measurement": "Blood glucose % change compared to control, day 5", "setting": "[2]; 25 mg/kg", "result": "−55.6", "unit": "%"}, {"measurement": "Blood glucose, day 6 post treatment", "setting": "[2]; 25 mg/kg", "result": "7.60 ± 3.46", "unit": "mM"}, {"measurement": "Blood glucose % change compared to control, day 6", "setting": "[2]; 25 mg/kg", "result": "−61.1", "unit": "%"}, {"measurement": "maximum percentage fall in blood glucose", "setting": "[2]; 25 mg/kg, day 6 of treatment", "result": "around 61.1%"}, {"measurement": "Blood glucose, day 7 post treatment", "setting": "[2]; 25 mg/kg", "result": "10.6 ± 2.20", "unit": "mM"}, {"measurement": "Blood glucose % change compared to control, day 7", "setting": "[2]; 25 mg/kg", "result": "−52.2", "unit": "%"}, {"measurement": "Blood glucose, day 8 post treatment", "setting": "[2]; 25 mg/kg", "result": "8.30 ± 1.13", "unit": "mM"}, {"measurement": "Blood glucose % change compared to control, day 8", "setting": "[2]; 25 mg/kg", "result": "−60.0", "unit": "%"}, {"measurement": "Blood glucose, day 9 post treatment", "setting": "[2]; 25 mg/kg", "result": "7.90 ± 1.30", "unit": "mM"}, {"measurement": "Blood glucose % change compared to control, day 9", "setting": "[2]; 25 mg/kg", "result": "−58.5", "unit": "%"}, {"measurement": "antihyperglycemic and antidyslipidemic/antihyperlipidemic activity (in words)", "setting": "[2]; 25 mg/kg, listed as S-isomer", "result": "marked antihyperglycemic and antihyperlipidemic effect compared to racemic mixture"}, {"measurement": "Comparative antihyperglycemic activity: Average Fall", "setting": "[2]; test dose 10 mg/kg", "result": "42.2*"}, {"measurement": "Comparative antihyperglycemic activity: Average Fall", "setting": "[2]; test dose 25 mg/kg", "result": "61.1**"}]}]}
